For one experiment, the system named is E. coli LY01. The settings on record: cited from earlier work.
Experiment [1] concerns BW25113. The settings on record: phenol at 50-75% of the MIC in LB at 37° C.; cited from earlier work.
The subject of experiment [2] is E. coli MG1655. In words: Octanoic acid tolerance characterization (specific growth rate). Format: cell-based. The procedure:
2.2 Strain Tolerance Characterization: Octanoic acid tolerance was characterized in 50 ml MOPS defined minimal medium with 2.0% (wt/v) dextrose and 10 mM octanoic acid (1.44 g/L) in 250 ml baffled flasks at 220 rpm and initial pH at 7.0, 30° C. MOPS media contains the following: 8.37 g/L 3-(N-morpholino)propanesulfonic acid (MOPS), 0.72 g/L tricine, 2.92 g/L NaCl, 0.51 g/L NH4Cl, 1.6 g/L KOH, 50 mg/L MgCl2, 48 mg/L K2SO4, 348 mg/L K2HPO4, 0.215 mg/L Na2SeO3, 0.303 mg/L Na2MoO4.2H2O, 0.17 mg/L ZnCl2, 2.5 μg/L FeCl2.4H2O, 0.092 μg/L CaCl2.2H2O, 0.031 μg/L H3BO3, 0.020 μg/L MnCl2.4H2O, 0.0090 μg/L CoCl2.4H2O, and 0.0020 μg/L CuCl2.4H2O [43, 44]. Specific growth rate μ (h-1) was calculated by fitting the equation OD=OD0e^μt over the duration of the exponential growth phase. […] Dry cell weight (DCW) was calculated from the optical density at 550 nm (1 OD550=0.333 g DCW/L).

The test system of experiment [3] is E. coli MG1655. In words: Membrane integrity (SYTOX Green, flow cytometry) during C8 challenge. Format: cell-based. The procedure:
Membrane Integrity Characterization: Cells were centrifuged, washed twice, and then resuspended in PBS buffer (pH 7.0) at a final OD550 of ˜1. One hundred microliter (100 μl) of this suspension was mixed with 900 μl of PBS buffer and SYTOX Green (Invitrogen) was added to a final concentration of 5.0 μM. After resting at room temperature for 15 minutes, cells were analyzed by a BD Biosciences FACSCanto II flow cytometer equipped with standard factory-installed 488 nm excitation laser, signal collection optics, and fluorescence emission filter configuration. Instrument sheath fluid was filtered (0.22 μm) PBS buffer. Green fluorescence from stained cells was collected in the FL1 channel (525/50 nm). Forward scatter (FSC), side scatter (SSC), and FL1 (Green) parameters were collected as logarithmic signals. All data collections were performed at low flow rate setting (˜12 μl/min) and cell concentrations were such that the event rate was below 5,000 events/s. All samples were analyzed immediately after staining. Background noise and small debris was eliminated from data collection via a side scatter signal threshold that was established by examining samples containing only SYTOX Green staining buffer. Bacteria in SYTOX Green-stained samples were readily identified on the basis of FSC and SSC signals and an appropriate “Cell” gate was drawn to limit FL1 analysis to bacteria and exclude non-cell events. A minimum of 20,000 cell-gated events were collected for each sample. Green fluorescence data for these “cell” events were plotted as histograms showing the signal distribution of bacteria in the sample [14]. Flow cytometry data for this work is available via Flow Repository (https://flowrepository.org) (FR-FCM-ZY2B).
For orientation: In flow cytometry, cells or beads pass a laser one at a time.

Experiment [4] has as its system E. coli MG1655. The settings on record: 40 mM; cited from earlier work.
In a further experiment the test system is E. coli BW25113. The following applies: up to 20 mM C8, pH 7.0, 37° C.; cited from earlier work.
Another experiment deals with E. coli KO11. The following applies: cited from earlier work.
The subject of the next experiment is E. coli Frag1. The settings on record: 8 mM acetate; cited from earlier work.
The test system of experiment [5] is BW25113. The settings on record: 10 vol % hexane in LB at 37° C.; cited from earlier work.

Here are results for seven compounds from patent publication US20180371404A1, “METABOLIC ENGINEERING OF MEMBRANE PROTEINS TO IMPROVE ESCHERICHIA COLI MEMBRANE INTEGRITY AND PRODUCTION OF FATTY ACIDS” (priority 2017, published 2018).

Values joined by “and” are separate entries in the source; they are usually repeats but may differ in a detail not shown here. Equal entries are not always repeated.

`O=Cc1ccco1` [Furfural]: the “concentration that inhibits growth completely” value in the experiment on E. coli LY01 was 3.5 g/L.
As to `Oc1ccccc1` [Phenol], in the experiment with BW25113 [1], the “survival on deletion of fadL” value is “Deletion of fadL from BW25113 had no impact on survival”.
In the case of `CCCCCCCC(=O)O` [C8, octanoic acid], the specific growth rate in the experiment with E. coli MG1655 [2] (10 mM C8, strain Gen-empty) was 0.31 h⁻¹; with E. coli MG1655 [2] (10 mM C8, strain Gen-fadL) it was 0.33 h⁻¹; with E. coli MG1655 [2] (10 mM C8, strain MG1655, MOPS+2% dextrose, 30° C., initial pH 7.0) it was 0.31 h⁻¹; in the experiment on E. coli MG1655 [2] (10 mM C8, strain Pla-empty) it was 0.31 h⁻¹; in the experiment on E. coli MG1655 [2] (10 mM C8, strain Pla-fadL) it was 0.33 h⁻¹ and 0.32 h⁻¹; with E. coli MG1655 [2] (10 mM C8, strain ΔfadL) it was 0.27 h⁻¹. For the same compound, the specific growth rate with E. coli MG1655 [2] (10 mM C8, strain ΔompF+Pla-fadL) came out at 0.36 h⁻¹. Further, the “specific growth rate, higher than control” value stood at 18% in the experiment on E. coli MG1655 [2] (10 mM C8, ΔompF+Pla-fadL vs Pla-empty); 7% with E. coli MG1655 [2] (C8 challenge, Gen-fadL vs Gen-empty); 8% in the experiment with E. coli MG1655 [2] (C8 challenge, Pla-fadL vs Pla-empty). In addition, the “specific growth rate, higher than individual increased expression of fadL” value in the experiment on E. coli MG1655 [2] (10 mM C8, ΔompF+Pla-fadL vs Pla-fadL) is on record as 12%. Moreover, the “specific growth rate, higher than individual deletion of ompF” value in the experiment on E. coli MG1655 [2] (10 mM C8, ΔompF+Pla-fadL vs ΔompF+Pla-empty) came to 10%. Further, in the experiment on E. coli MG1655 [2] (C8 challenge, ΔfadL vs MG1655), the “specific growth rate, lower than MG1655” value came to 12%. For the same compound, the “specific growth rate, higher than MG1655” value in the experiment with E. coli MG1655 [2] (C8 challenge, ΔompF vs MG1655) is 7%. Moreover, the “increase in membrane integrity” value with E. coli MG1655 [3] (10 mM C8, Gen-fadL vs Gen-empty) came to 14%; in the experiment on E. coli MG1655 [3] (10 mM C8, Pla-fadL vs Pla-empty), 25%. The “percentage of cells with intact membranes, lower than MG1655” value with E. coli MG1655 [3] (10 mM C8, ΔfadL vs MG1655) was 23%. In addition, the “increase in percentage of cells with intact membranes” value was determined as 18% with E. coli MG1655 [3] (10 mM C8, ΔompF vs wild-type control strain) and 37% in the experiment with E. coli MG1655 [3] (C8 challenge, ΔompF+Pla-fadL vs Pla-empty). Moreover, the growth inhibition entry with E. coli MG1655 [4] is on record as “completely inhibitory”. The “magnitude of intracellular acidification on deletion of ompF” value in the experiment with E. coli BW25113 is on record as “assessed via the maximum OD. Deletion of ompF decreased the magnitude”.
As for `CCO` [ethanol], in the experiment on E. coli KO11 (35 g/L ethanol, engineered E. coli KO11), the growth result was “grows poorly”. In addition, the cells surviving challenge entry in the experiment with E. coli KO11 (100 g/L ethanol, KO11) is on record as “less than 10%”.
With `CC(=O)O` [acetate], the “reduction of specific growth rate” value with E. coli Frag1 is 50%.
With `CCCCCC(=O)O` [hexanoic acid], the growth inhibition result in the experiment with E. coli MG1655 [4] is on record as “completely inhibitory”.
Turning to `CCCCCC` [Hexane], in the experiment on BW25113 [5], the “survival (assessed by OD) on deletion of fadL” value is listed as “Deletion of fadL from BW25113 increased survival, as assessed by OD”.
